# According to patent publication US5300491A, “Treatment of protozoal infection” (priority 1992, dated 1994):
# Read-outs that look alike come from different tables or passages of the source.
# System: Entamoeba histolytica
# Assay type: cell-based
# Text: E. histolytica isolates representing three distinct zymodemes (I, II or XIV) were derived from a range of geographical locations. The patients from whom the isolates were obtained were either pathogenic (i.e. presented dysentery), or non-pathogenic (i.e., presented a non-dysenteric stage of infection characterized by passing of cysts or trophozoites). The following table identifies the E. histolytica isolates in accordance with the above criteria:
# Each isolate was a xenic culture, i.e., it contained, in addition to the E. histolytica amoeba, the normally occurring patient faecal microflora. The cultures were maintained according to the method of Robinson, Trans. Roy. Soc. Trop. Med. Hyg. 62, 285-94, (1968). Bacitracin (70 I.U./mg) and its zinc salt (65 I.U./mg) were obtained from Apothekernes Laboratorium A.S (Oslo, Norway). Following microtitre-assay standardization and pilot testing of the drugs (results not presented), the following assay procedure was established. Bacitracin was screened over the range of 20.0-0.625 mg/ml by doubling dilution. 30 mg/ml bacitracin was also examined. […] The remaining wells were run as controls. An initial stock solution of 75 mg/ml bacitracin was prepared in starch-free Robinson medium (SFRM) . Subsequent to loading the first set of wells, the stock was diluted with SFRM to 50 mg/ml, which was used to prepare the remaining concentrations. […] 100 μl volumes of both drugs were then double-diluted in SFRM to provide 2.5X concentrates of the required final concentrations in the microtitre plates. 50 μl of a 25 mg% starch (BDH) solution (in SFRM) was then added to each well. 16-18 hours before the end of the required 48-hour culture period, the amoeba isolates were passaged to fresh tubes containing starch-free Robinson medium. At the end of the culture period, the amoebae were harvested in a small volume of medium and resuspended in at least 20 volumes SFRM. The suspensions were centrifuged at 1000 rpm for 5 minutes prior to re-suspension in fresh medium and counted in a modified Neubauer chamber. Amoebae were centrifuged as before and the pellet resuspended to a concentration of 2.5×10^4 /ml SFRM. 100 μl aliquots were then pipetted into respective wells to provide duplicate cultures of each isolate for each concentration assayed. The plates were then placed in an anaerobic chamber (HP11, Oxoid) at 37° C. for 24 hours. While this procedure provided sufficient starch for the amoebae, the concentration was such that at 24 hours the plates were easily read and quantitified by direct observation using an inverted microscope. Viability was assessed by the addition of Trypan blue to a final concentration of 0.1%.
# Readings from each of the studies were collected and stored until all three experiments were completed in order to reduce any bias in subsequent readings. Minimun inhibitory and minimum lethal concentrations were given in mg/ml. […]
# [1] = span over all xenic isolates and studies
# [2] = xenic isolate 70k, Experiment 1
# [3] = xenic isolate 70k, Experiment 2
# [4] = xenic isolate 70k, Experiment 3
# [5] = xenic isolate 116k, Experiment 1
# [6] = xenic isolate 116k, Experiment 2
# [7] = xenic isolate 116k, Experiment 3
# [8] = xenic isolate 418, Experiment 1
# [9] = xenic isolate 418, Experiment 2
# [10] = xenic isolate 418, Experiment 3
# [11] = xenic isolate 1246, Experiment 1
# [12] = xenic isolate 1246, Experiment 2
# [13] = xenic isolate 1246, Experiment 3
# [14] = xenic isolate AiDO, Experiment 1
# [15] = xenic isolate AiDO, Experiment 2
# [16] = xenic isolate AiDO, Experiment 3
# [17] = xenic isolate BiLO, Experiment 1
# [18] = xenic isolate BiLO, Experiment 3
# [19] = xenic isolate DOGO, Experiment 1
# [20] = xenic isolate DOGO, Experiment 2
# [21] = xenic isolate DOGO, Experiment 3
# [22] = xenic isolate OMAk, Experiment 1
# [23] = xenic isolate OMAk, Experiment 3
# [24] = xenic isolate Sh2, Experiment 1
# [25] = xenic isolate Sh2, Experiment 2
# [26] = xenic isolate Sh2, Experiment 3
# [27] = xenic isolate T2k, Experiment 1
# [28] = xenic isolate T2k, Experiment 2
# [29] = xenic isolate T2k, Experiment 3
# [30] = xenic isolate URU1, Experiment 1
# [31] = xenic isolate URU1, Experiment 2
# [32] = xenic isolate URU1, Experiment 3
# [33] = xenic isolate URU19, Experiment 1
# [34] = xenic isolate URU19, Experiment 3
substance,measurement,setting,value
Zinc bacitracin,concentration at which precipitation occurred,in the xenic culture assay medium,≥ 5000 µg/mL
same,MICs,[1],0.16 to 1.25 mg/mL
same,MLCs,[1],1.25 to 5.0 mg/mL
same,Minimum Lethal Concentration (MLC),"xenic Isolate 1, single study over a narrower range of drug concentration (Table 4)",1600 µg/mL
same,Minimum Lethal Concentration (MLC),"xenic Isolate C1, single study over a narrower range of drug concentration (Table 4)",1400 µg/mL
same,Minimum Inhibitory Concentration (MIC),"xenic isolate 1, Experiment 1",630 µg/mL
same,Minimum Lethal Concentration (MLC),"xenic isolate 1, Experiment 1",2500 µg/mL
same,Minimum Inhibitory Concentration (MIC),"xenic isolate 1, Experiment 2",1250 µg/mL
same,Minimum Lethal Concentration (MLC),"xenic isolate 1, Experiment 2",2500 µg/mL
same,Minimum Inhibitory Concentration (MIC),"xenic isolate 1, Experiment 3",310 µg/mL
same,Minimum Lethal Concentration (MLC),"xenic isolate 1, Experiment 3",2500 µg/mL
same,Minimum Inhibitory Concentration (MIC),[2],630 µg/mL
same,Minimum Lethal Concentration (MLC),[2],2500 µg/mL
same,Minimum Inhibitory Concentration (MIC),[3],630 µg/mL
same,Minimum Lethal Concentration (MLC),[3],2500 µg/mL
same,Minimum Inhibitory Concentration (MIC),[4],630 µg/mL
same,Minimum Lethal Concentration (MLC),[4],2500 µg/mL
same,Minimum Inhibitory Concentration (MIC),[5],630 µg/mL
same,Minimum Lethal Concentration (MLC),[5],2500 µg/mL
same,Minimum Inhibitory Concentration (MIC),[6],310 µg/mL
same,Minimum Lethal Concentration (MLC),[6],1250 µg/mL
same,Minimum Inhibitory Concentration (MIC),[7],310 µg/mL
same,Minimum Lethal Concentration (MLC),[7],2500 µg/mL
same,Minimum Inhibitory Concentration (MIC),[8],630 µg/mL
same,Minimum Lethal Concentration (MLC),[8],5000 µg/mL
same,Minimum Inhibitory Concentration (MIC),[9],310 µg/mL
same,Minimum Lethal Concentration (MLC),[9],2500 µg/mL
same,Minimum Inhibitory Concentration (MIC),[10],310 µg/mL
same,Minimum Lethal Concentration (MLC),[10],2500 µg/mL
same,Minimum Inhibitory Concentration (MIC),[11],160 µg/mL
same,Minimum Lethal Concentration (MLC),[11],2500 µg/mL
same,Minimum Inhibitory Concentration (MIC),[12],630 µg/mL
same,Minimum Lethal Concentration (MLC),[12],2500 µg/mL
same,Minimum Inhibitory Concentration (MIC),[13],310 µg/mL
same,Minimum Lethal Concentration (MLC),[13],1250 µg/mL
same,Minimum Inhibitory Concentration (MIC),[14],630 µg/mL
same,Minimum Lethal Concentration (MLC),[14],2500 µg/mL
same,Minimum Inhibitory Concentration (MIC),[15],160 µg/mL
same,Minimum Lethal Concentration (MLC),[15],2500 µg/mL
same,Minimum Inhibitory Concentration (MIC),[16],160 µg/mL
same,Minimum Lethal Concentration (MLC),[16],2500 µg/mL
same,Minimum Inhibitory Concentration (MIC),[17],310 µg/mL
same,Minimum Lethal Concentration (MLC),[17],2500 µg/mL
same,Minimum Inhibitory Concentration (MIC),[18],310 µg/mL
same,Minimum Lethal Concentration (MLC),[18],2500 µg/mL
same,Minimum Inhibitory Concentration (MIC),"xenic isolate C1, Experiment 1",1250 µg/mL
same,Minimum Lethal Concentration (MLC),"xenic isolate C1, Experiment 1",2500 µg/mL
same,Minimum Inhibitory Concentration (MIC),"xenic isolate C1, Experiment 2",310 µg/mL
same,Minimum Lethal Concentration (MLC),"xenic isolate C1, Experiment 2",2500 µg/mL
same,Minimum Inhibitory Concentration (MIC),"xenic isolate C1, Experiment 3",310 µg/mL
same,Minimum Lethal Concentration (MLC),"xenic isolate C1, Experiment 3",2500 µg/mL
same,Minimum Inhibitory Concentration (MIC),"xenic isolate C2, Experiment 1",630 µg/mL
same,Minimum Lethal Concentration (MLC),"xenic isolate C2, Experiment 1",2500 µg/mL
same,Minimum Inhibitory Concentration (MIC),"xenic isolate C2, Experiment 2",630 µg/mL
same,Minimum Lethal Concentration (MLC),"xenic isolate C2, Experiment 2",2500 µg/mL
same,Minimum Inhibitory Concentration (MIC),"xenic isolate C2, Experiment 3",310 µg/mL
same,Minimum Lethal Concentration (MLC),"xenic isolate C2, Experiment 3",2500 µg/mL
same,Minimum Inhibitory Concentration (MIC),"xenic isolate DA, Experiment 1",630 µg/mL
same,Minimum Lethal Concentration (MLC),"xenic isolate DA, Experiment 1",2500 µg/mL
same,Minimum Inhibitory Concentration (MIC),"xenic isolate DA, Experiment 2",630 µg/mL
same,Minimum Lethal Concentration (MLC),"xenic isolate DA, Experiment 2",2500 µg/mL
same,Minimum Inhibitory Concentration (MIC),"xenic isolate DA, Experiment 3",630 µg/mL
same,Minimum Lethal Concentration (MLC),"xenic isolate DA, Experiment 3",2500 µg/mL
same,Minimum Inhibitory Concentration (MIC),[19],160 µg/mL
same,Minimum Lethal Concentration (MLC),[19],2500 µg/mL
same,Minimum Inhibitory Concentration (MIC),[20],310 µg/mL
same,Minimum Lethal Concentration (MLC),[20],2500 µg/mL
same,Minimum Inhibitory Concentration (MIC),[21],310 µg/mL
same,Minimum Lethal Concentration (MLC),[21],1250 µg/mL
same,Minimum Inhibitory Concentration (MIC),"xenic isolate GS, Experiment 1",630 µg/mL
same,Minimum Lethal Concentration (MLC),"xenic isolate GS, Experiment 1",2500 µg/mL
same,Minimum Inhibitory Concentration (MIC),"xenic isolate GS, Experiment 2",630 µg/mL
same,Minimum Lethal Concentration (MLC),"xenic isolate GS, Experiment 2",2500 µg/mL
same,Minimum Inhibitory Concentration (MIC),"xenic isolate GS, Experiment 3",310 µg/mL
same,Minimum Lethal Concentration (MLC),"xenic isolate GS, Experiment 3",2500 µg/mL
same,Minimum Inhibitory Concentration (MIC),"xenic isolate MS, Experiment 1",630 µg/mL
same,Minimum Lethal Concentration (MLC),"xenic isolate MS, Experiment 1",2500 µg/mL
same,Minimum Inhibitory Concentration (MIC),"xenic isolate MS, Experiment 2",630 µg/mL
same,Minimum Lethal Concentration (MLC),"xenic isolate MS, Experiment 2",1250 µg/mL
same,Minimum Inhibitory Concentration (MIC),"xenic isolate MS, Experiment 3",630 µg/mL
same,Minimum Lethal Concentration (MLC),"xenic isolate MS, Experiment 3",2500 µg/mL
same,Minimum Inhibitory Concentration (MIC),[22],310 µg/mL
same,Minimum Lethal Concentration (MLC),[22],2500 µg/mL
same,Minimum Inhibitory Concentration (MIC),[23],160 µg/mL
same,Minimum Lethal Concentration (MLC),[23],2500 µg/mL
same,Minimum Inhibitory Concentration (MIC),"xenic isolate SI, Experiment 1",630 µg/mL
same,Minimum Lethal Concentration (MLC),"xenic isolate SI, Experiment 1",2500 µg/mL
same,Minimum Inhibitory Concentration (MIC),"xenic isolate SI, Experiment 3",630 µg/mL
same,Minimum Lethal Concentration (MLC),"xenic isolate SI, Experiment 3",2500 µg/mL
same,Minimum Inhibitory Concentration (MIC),[24],630 µg/mL
same,Minimum Lethal Concentration (MLC),[24],2500 µg/mL
same,Minimum Inhibitory Concentration (MIC),[25],630 µg/mL
same,Minimum Lethal Concentration (MLC),[25],2500 µg/mL
same,Minimum Inhibitory Concentration (MIC),[26],310 µg/mL
same,Minimum Lethal Concentration (MLC),[26],2500 µg/mL
same,Minimum Inhibitory Concentration (MIC),[27],630 µg/mL
same,Minimum Lethal Concentration (MLC),[27],5000 µg/mL
same,Minimum Inhibitory Concentration (MIC),[28],310 µg/mL
same,Minimum Lethal Concentration (MLC),[28],5000 µg/mL
same,Minimum Inhibitory Concentration (MIC),[29],160 µg/mL
same,Minimum Lethal Concentration (MLC),[29],2500 µg/mL
same,Minimum Inhibitory Concentration (MIC),"xenic isolate T4, Experiment 1",310 µg/mL
same,Minimum Lethal Concentration (MLC),"xenic isolate T4, Experiment 1",2500 µg/mL
same,Minimum Inhibitory Concentration (MIC),"xenic isolate T4, Experiment 2",310 µg/mL
same,Minimum Lethal Concentration (MLC),"xenic isolate T4, Experiment 2",2500 µg/mL
same,Minimum Inhibitory Concentration (MIC),"xenic isolate T4, Experiment 3",160 µg/mL
same,Minimum Lethal Concentration (MLC),"xenic isolate T4, Experiment 3",2500 µg/mL
same,Minimum Inhibitory Concentration (MIC),"xenic isolate T6, Experiment 1",310 µg/mL
same,Minimum Lethal Concentration (MLC),"xenic isolate T6, Experiment 1",2500 µg/mL
same,Minimum Inhibitory Concentration (MIC),"xenic isolate T6, Experiment 2",630 µg/mL
same,Minimum Lethal Concentration (MLC),"xenic isolate T6, Experiment 2",2500 µg/mL
same,Minimum Inhibitory Concentration (MIC),"xenic isolate T6, Experiment 3",310 µg/mL
same,Minimum Lethal Concentration (MLC),"xenic isolate T6, Experiment 3",2500 µg/mL
same,Minimum Inhibitory Concentration (MIC),[30],630 µg/mL
same,Minimum Lethal Concentration (MLC),[30],2500 µg/mL
same,Minimum Inhibitory Concentration (MIC),[31],1250 µg/mL
same,Minimum Lethal Concentration (MLC),[31],2500 µg/mL
same,Minimum Inhibitory Concentration (MIC),[32],630 µg/mL
same,Minimum Lethal Concentration (MLC),[32],2500 µg/mL
same,Minimum Inhibitory Concentration (MIC),[33],630 µg/mL
same,Minimum Lethal Concentration (MLC),[33],2500 µg/mL
same,Minimum Inhibitory Concentration (MIC),[34],310 µg/mL
same,Minimum Lethal Concentration (MLC),[34],2500 µg/mL
